Test results: patent US20240366809A1, “INHIBITOR OF PROSTATE SPECIFIC MEMBRANE ANTIGEN AND PHARMACEUTICAL USE THEREOF” (TIANJIN HENGRUI MEDICINE CO., LTD., priority 2021, published 2024)
Where “and” joins values, the source holds several entries; their conditions need not be identical. Identical values can stand only once. One block for each compound: values may come before it.

Key:
rhPSMA [1] = biological target: T1, rhPSMA (Homo sapiens (Human), UniProt Q04609); test: Tests for inhibitory activity against PSMA (Test Example 1); format: biochemical; settings: rhPSMA 50 ng/well, substrate N-Acetyl-Asp-Glu, 37° C. 1 h
Method: • 1. Multifunctional microplate reader (SPARK, TECAN) • 2. rhPSMA (R&D, 4234-ZN) • 3. N-Acetyl-Asp-Glu (Sigma, A5930) • 4. OPA (Sigma, P0657)
PSMA inhibitors can bind to the enzyme PSMA to prevent the enzyme PSMA from decomposing the substrate N-Acetyl-Asp-Glu. In this experiment, the extent to which the substrate was decomposed and the resulting ultraviolet absorption changes were measured to evaluate the capacities of the PSMA inhibitors to bind to the enzyme PSMA, and the activity of the compounds was evaluated with IC50 values.
(§1) Buffer 1 (50 mM HEPES, 0.1 M NaCl, pH 7.5) was used to prepare a 0.4 μg/mL rhPSMA solution and a 40 μM solution of the substrate N-Acetyl-Asp-Glu. rhPSMA was mixed with the small molecules to be tested in a 96-well plate, with a constant rhPSMA content of 50 ng/well maintained. Meanwhile, the small molecules were step-wise diluted to final concentrations of 1 μM, 100 nM, 33.3 nM, 11.1 nM, 3.7 nM, 1.2 nM, 0.41 nM, 0.137 nM, 0.045 nM, and 0 nM. In addition, a positive control was set up using PSMA-617. The rhPSMA-small molecules were taken at 40 μL/well and well mixed with the 40 μM solution of the substrate N-Acetyl-Asp-Glu (40 μL/well). The mixtures were incubated at 37° C. in the dark for 1 h, were heated at 70° C. for 5 min to quench the reactions, and were cooled to room temperature. Buffer 2 (0.2 M NaOH, 0.1% beta-Mercaptoethanol) was used to prepare a 15 mM OPA solution. The OPA solution was added to the reaction systems at 80 μL/well and well mixed, and then the plate was incubated at room temperature for 10 min. The mixtures were taken at 100 μL/well and added to a 96-well Flat Black. With the excitation wavelength set to 330 nm and the emission wavelength to 465 nm, the intensity of signals was measured. IC50 values were obtained from dose-response curves.
The capacities of the compounds of the present disclosure to bind to the enzyme GCPII can be measured through the assay described above.

rhPSMA [2] = biological target: T1, rhPSMA; test: Affinity assays using enzyme activity method (Test Example 2); format: biochemical
Method: as §1

LnCaP tumor = test: Biodistribution of 68Ga-labeled compounds in LnCaP tumor-bearing mice; format: in vivo
Method: After single tail-vein injections into mice, the in-vivo distributions of ^68Ga-labeled compound v (Example 9) and compound x (Example 11) in the positive LnCaP tumor-bearing mice were observed.
At 2 h after the injection, a total of 3 animals were sacrificed by cervical dislocation, and tissue samples were collected, including samples of the blood, the heart, the lungs, the liver, the spleen, the kidneys, the stomach, the intestine, the bones, the flesh, the brain, the salivary gland, the large intestine, the pancreas, and the tumor. The net weight of the tissues was measured first, and the radioactivity counts of the collected tissues were then measured using a γ-counter. The distributions of the labeled compounds in the different tissues and organs of the mice were measured. Meanwhile, a test sample was accurately diluted 100-fold, and 0.1 mL of the dilution was added to a counting tube and used as standard 1% ID (i.e., one percent of the injected dose). The radioactivity counts of the 1% ID standard and the biological samples were measured simultaneously on a γ-counter. The biodistribution data were expressed as the percentage of the radioactivity counts per gram of tissue or organ to the total injected dose (radioactivity counts) (% ID/g).

human organs = test: Absorbed doses of radiation, estimates for human organs (OLINDA software)
Method: The AUC of drug metabolisms was calculated from the biodistribution (Bio-D) data and imported into the OLINDA software to generate doses of radiation absorbed by all the organs.

[3] = Pharmacokinetics in blood of normal mice after single tail-vein injection; format: in vivo; settings: for Blood % ID/g: normal mice, individual animals 1-4
Method: Through single tail-vein injections into mice, the pharmacokinetics of ^68Ga-v (Example 9) and PSMA-617 in blood was studied.
Each mouse was dosed at 50 μCi/100 μL, and blood samples were taken from the orbit 0.083, 0.25, 0.5, 1, 2, and 4 h post-dose (4 animals per time point). The blood samples were collected in pre-weighed sample tubes. The tubes were weighed and the weight of the blood samples was recorded. Then radioactivity counting was performed using a γ-counter. Meanwhile, a test sample was accurately diluted 100-fold, and 0.1 mL of the dilution was added to a counting tube and used as standard 1% ID (i.e., one percent of the injected dose). The radioactivity counts of the 1% ID standard and the biological samples were measured simultaneously on a γ-counter. The data on blood were expressed as the percentage of the radioactivity counts per gram of blood to the total injected dose (radioactivity counts) (% ID/g). Pharmacokinetic parameters were calculated from blood drug concentration data.

[4] = 2 h after injection, LnCaP tumor-bearing mice

T1 sequence (Q04609 44-750): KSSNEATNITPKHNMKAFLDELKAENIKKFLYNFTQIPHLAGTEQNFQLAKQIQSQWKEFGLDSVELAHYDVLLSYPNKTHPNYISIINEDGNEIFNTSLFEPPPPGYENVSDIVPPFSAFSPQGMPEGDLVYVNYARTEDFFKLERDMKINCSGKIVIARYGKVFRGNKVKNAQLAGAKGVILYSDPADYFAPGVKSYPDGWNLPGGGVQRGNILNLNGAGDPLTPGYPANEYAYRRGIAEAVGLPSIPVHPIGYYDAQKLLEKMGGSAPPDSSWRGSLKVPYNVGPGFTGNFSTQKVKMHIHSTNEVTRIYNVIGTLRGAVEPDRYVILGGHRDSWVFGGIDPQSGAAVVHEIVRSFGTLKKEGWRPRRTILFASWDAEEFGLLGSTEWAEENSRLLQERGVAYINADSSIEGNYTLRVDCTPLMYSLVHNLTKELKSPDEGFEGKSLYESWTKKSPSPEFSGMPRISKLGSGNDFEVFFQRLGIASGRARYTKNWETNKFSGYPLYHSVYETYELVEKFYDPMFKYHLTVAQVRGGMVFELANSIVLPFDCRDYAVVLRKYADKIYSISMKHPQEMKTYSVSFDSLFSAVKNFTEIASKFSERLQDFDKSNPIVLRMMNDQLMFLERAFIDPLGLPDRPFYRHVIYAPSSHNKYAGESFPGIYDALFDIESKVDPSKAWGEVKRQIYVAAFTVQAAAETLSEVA

IC50 (rhPSMA [1]): 143 nM
Structure (SMILES): NCc1cnn([C@@H](Cc2ccccc2)C(=O)NCCCC[C@H](NC(=O)N[C@@H](CCC(=O)O)C(=O)O)C(=O)O)c1

IC50 (rhPSMA [1]): 178 nM
Structure (SMILES): N[C@@H](Cc1ccncc1)C(=O)NCCCC[C@H](NC(=O)N[C@@H](CCC(=O)O)C(=O)O)C(=O)O

IC50 (rhPSMA [1]): 2.4 nM
Structure (SMILES): O=C(O)CC[C@H](NC(=O)N[C@@H](CCCCNC(=O)[C@H](Cc1ccc2ccccc2c1)NC(=O)C1CC12CCNCC2)C(=O)O)C(=O)O (some centres unmarked)

IC50 (rhPSMA [1]): 4.13 nM
Structure (SMILES): O=C(O)CC[C@H](NC(=O)N[C@@H](CCCCNC(=O)[C@H](Cc1ccc2ccccc2c1)NC(=O)N1CCC(CNC(=O)CN2CCN(CC(=O)O)CCN(CC(=O)O)CCN(CC(=O)O)CC2)CC1)C(=O)O)C(=O)O

Ratio to PSMA-617 (rhPSMA [2]; ratio of IC50 values): 1.00
IC50 (rhPSMA [2]; rhPSMA 50 ng/well, substrate N-Acetyl-Asp-Glu, 37° C. 1 h): 1.65 nM
IC50 (rhPSMA [1]): 2.36 nM
Structure (SMILES): O=C(O)CC[C@H](NC(=O)N[C@@H](CCCCNC(=O)[C@H](Cc1ccc2ccccc2c1)NC(=O)[C@H]1CC[C@H](CNC(=O)CN2CCN(CC(=O)O)CCN(CC(=O)O)CCN(CC(=O)O)CC2)CC1)C(=O)O)C(=O)O [PSMA-617, reference compound]

targeting effect on the LnCap tumor (LnCaP tumor; [4]): good targeting effect on the LnCap tumor
tumor uptake, comparison in words (LnCaP tumor; [4]): better than ^68Ga-x (Example 11)'s
uptake values in the other tissues (LnCaP tumor; 2 h after injection, tissues other than tumor, kidneys, liver, lung, spleen): very low
uptake value in the LnCap tumor (LnCaP tumor; 2 h after single tail-vein injection, LnCaP tumor-bearing mice): ~10 Id %/g
radiation dose estimate, Adrenals (human organs; human organ: Adrenals): 8.50E−03 mSv/MBq
radiation dose estimate, Brain (human organs; human organ: Brain): 3.99E−02 mSv/MBq
radiation dose estimate, Esophagus (human organs; human organ: Esophagus): 3.77E−03 mSv/MBq
radiation dose estimate, Eyes (human organs; human organ: Eyes): 1.84E−03 mSv/MBq
radiation dose estimate, Gallbladder Wall (human organs; human organ: Gallbladder Wall): 5.52E−03 mSv/MBq
radiation dose estimate, Heart Wall (human organs; human organ: Heart Wall): 1.62E−02 mSv/MBq
radiation dose estimate, Kidneys (human organs; human organ: Kidneys): 3.54E−02 mSv/MBq
radiation dose estimate, Left colon (human organs; human organ: Left colon): 6.87E−03 mSv/MBq
radiation dose estimate, Liver (human organs; human organ: Liver): 2.50E−02 mSv/MBq
radiation dose estimate, Lungs (human organs; human organ: Lungs): 1.05E−02 mSv/MBq
radiation dose estimate, Osteogenic Cells (human organs; human organ: Osteogenic Cells): 4.65E−03 mSv/MBq
radiation dose estimate, Pancreas (human organs; human organ: Pancreas): 9.51E−03 mSv/MBq
radiation dose estimate, Prostate (human organs; human organ: Prostate): 3.77E−03 mSv/MBq
radiation dose estimate, Rectum (human organs; human organ: Rectum): 1.99E−01 mSv/MBq
radiation dose estimate, Red Marrow (human organs; human organ: Red Marrow): 2.12E−03 mSv/MBq
radiation dose estimate, Right colon (human organs; human organ: Right colon): 3.43E−03 mSv/MBq
radiation dose estimate, Salivary Glands (human organs; human organ: Salivary Glands): 1.81E−03 mSv/MBq
radiation dose estimate, Small Intestine (human organs; human organ: Small Intestine): 1.31E−01 mSv/MBq
radiation dose estimate, Spleen (human organs; human organ: Spleen): 5.13E−02 mSv/MBq
radiation dose estimate, Stomach Wall (human organs; human organ: Stomach Wall): 8.54E−02 mSv/MBq
radiation dose estimate, Testes (human organs; human organ: Testes): 3.51E−04 mSv/MBq
radiation dose estimate, Thymus (human organs; human organ: Thymus): 1.99E−03 mSv/MBq
radiation dose estimate, Thyroid (human organs; human organ: Thyroid): 9.11E−04 mSv/MBq
radiation dose estimate, Urinary Bladder Wall (human organs; human organ: Urinary Bladder Wall): 2.27E−03 mSv/MBq
radiation dose estimate, Effective Dose (human organs; human: Effective Dose): 2.10E−02 mSv/MBq
radiation dose estimate, Total Body (human organs; human: Total Body): 0.496E−02 mSv/MBq
time estimated using 5 effective half-lives ([3]; 5 effective half-lives): 2.27 h
content of the radioactive substance in the blood ([3]; 0.25 h after the injections, mean of n=4): 1.25±0.22 % ID/g
effective half-life Te ([3]; according to calculations): 27 min
elimination phase half-life ([3]; blood of mice): 45.5 min
half-life in the blood ([3]; blood of normal mice): 7.8 min
AUCINF_obs ([3]; blood of normal mice, 0-4 h): 1.66 ± 0.24 h* % ID/g
AUClast ([3]; blood of normal mice, 0-4 h): 1.67 ± 0.26 h* % ID/g
Cl_obs ([3]; blood of normal mice, 0-4 h): 12.17 ± 1.77 μCi/h* % ID/g
Cmax ([3]; blood of normal mice, 0-4 h): 5.06 ± 0.74 % ID/g
MRTlast ([3]; blood of normal mice, 0-4 h): 23.4 ± 1.2 min
Vz_obs ([3]; blood of normal mice, 0-4 h): 4.97 ± 1.09 μCi/% ID/g
t1/2 ([3]; blood of normal mice, 0-4 h): 7.8 min
t1/2 ([3]; blood of normal mice, 0-4 h, listed as 68Ga-V): 7.8 ± 2.4 min
time after dosing at which substantially metabolized ([3]; estimated as 5 times the half-life): 3.9 h
Structure (SMILES): O=C([O-])CN1CCN(CC(=O)[O-])CCN(CC(=O)N2CCO[C@]3(CC[C@H](C(=O)N[C@@H](Cc4ccc5ccccc5c4)C(=O)NCCCC[C@H](NC(=O)N[C@@H](CCC(=O)O)C(=O)O)C(=O)O)CC3)C2)CCN(CC(=O)[O-])CC1.[68Ga+3] [^68Ga-v]
absorbed dose of radiation, comparison with the labeled PSMA-617 in words (human organs; from Table 5): half of that resulting from ^68Ga-PSMA-617
Blood % ID/g ([3]; 0.083 h post-dose): 5.89 % ID/g and 4.98 % ID/g and 5.26 % ID/g and 4.11 % ID/g
Blood % ID/g ([3]; 0.25 h post-dose): 1.33 % ID/g and 1.11 % ID/g and 1.52 % ID/g and 1.03 % ID/g
Blood % ID/g ([3]; 0.5 h post-dose): 1.15 % ID/g and 0.52 % ID/g and 0.79 % ID/g and 0.99 % ID/g
Blood % ID/g ([3]; 1 h post-dose): 0.33 % ID/g and 0.19 % ID/g (2×) and 0.16 % ID/g
Blood % ID/g ([3]; 2 h post-dose): 0.07 % ID/g and 0.13 % ID/g and 0.10 % ID/g and 0.11 % ID/g
Blood % ID/g ([3]; 4 h post-dose): 0.06 % ID/g and 0.02 % ID/g and 0.10 % ID/g and 0.08 % ID/g

IC50 (rhPSMA [1]): 1.52 nM
Structure (SMILES): O=C(O)CC[C@H](NC(=O)N[C@@H](CCCCNC(=O)[C@H](Cc1ccc2ccccc2c1)NC(=O)[C@H]1CC[C@@]2(CC1)CN(C(=O)CN1CCN(CC(=O)O)CCN(CC(=O)O)CCN(CC(=O)O)CC1)CCO2)C(=O)O)C(=O)O [drawing 156]
